Calls of active or inactive are those of the source. The rule behind the calls is not given here.
System: CCRIS mutagenicity, Ames/micronucleus/aberration tests
Assay: CCRIS mutagenicity studies
[1] = Test System: AMES SALMONELLA TYPHIMURIUM, Strain/Indicator: TA98, Metabolic Activation: NONE, Method: PREINCUBATION
[2] = Test System: AMES SALMONELLA TYPHIMURIUM, Strain/Indicator: TA98, Metabolic Activation: NONE, Method: STANDARD PLATE
[3] = Test System: AMES SALMONELLA TYPHIMURIUM, Strain/Indicator: TA100, Metabolic Activation: NONE, Method: STANDARD PLATE

COc1cccc2c1C(=O)c1c(O)c3c(c(O)c1C2=O)C[C@@](O)(C(C)=O)C[C@@H]3O[C@H]1C[C@H](N)[C@H](O)[C@H](C)O1
mutagenic call (End Point: In vitro micronucleus, Test System: Human lymphoblastoid TK6 cells, Metabolic Activation: None): active; positive (p<0.001) | mutagenic call (Test System: AMES SALMONELLA TYPHIMURIUM, Strain/Indicator: GW257, Metabolic Activation: NONE, Method: STANDARD PLATE): active; positive | mutagenic call (Test System: AMES SALMONELLA TYPHIMURIUM, Strain/Indicator: TA97, Metabolic Activation: NONE, Method: STANDARD PLATE): inactive; negative | mutagenic call [1]: active; positive | mutagenic call [2]: active; positive | mutagenic call (Test System: AMES SALMONELLA TYPHIMURIUM, Strain/Indicator: TA98, Metabolic Activation: RAT, LIVER, S-9, AROCLOR 1254, Method: STANDARD PLATE): active; positive | mutagenic call (Test System: AMES SALMONELLA TYPHIMURIUM, Strain/Indicator: TA98, Metabolic Activation: RAT, LIVER, S-9, KC500 OR PHENOBARBITAL, Method: LIQUID SUSPENSION): active; positive | mutagenic call [3]: active; positive | mutagenic call (Test System: AMES SALMONELLA TYPHIMURIUM, Strain/Indicator: TA100, Metabolic Activation: RAT, LIVER, S-9, KC500 OR PHENOBARBITAL, Method: LIQUID SUSPENSION): active; positive | mutagenic call (Test System: AMES SALMONELLA TYPHIMURIUM, Strain/Indicator: TA102, Metabolic Activation: NONE, Method: STANDARD PLATE): active; positive | mutagenic call (Test System: AMES SALMONELLA TYPHIMURIUM, Strain/Indicator: TA104, Metabolic Activation: NONE, Method: STANDARD PLATE): inactive; negative | mutagenic call (Test System: AMES SALMONELLA TYPHIMURIUM, Strain/Indicator: TA1535, Metabolic Activation: NONE, Method: STANDARD PLATE): inactive; negative | mutagenic call (Test System: AMES SALMONELLA TYPHIMURIUM, Strain/Indicator: TA1538, Metabolic Activation: NONE, Method: STANDARD PLATE): active; positive | mutagenic call (Test System: AMES SALMONELLA TYPHIMURIUM, Strain/Indicator: TA1978/PKM101, Metabolic Activation: NONE, Method: STANDARD PLATE): active; positive | mutagenic call (Test System: AMES SALMONELLA TYPHIMURIUM, Strain/Indicator: TA1978, Metabolic Activation: NONE, Method: STANDARD PLATE): inactive; negative | mutagenic call (Test System: AMES SALMONELLA TYPHIMURIUM, Strain/Indicator: TA2637, Metabolic Activation: NONE, Method: STANDARD PLATE): active; positive | mutagenic call (Test System: AMES SALMONELLA TYPHIMURIUM, Strain/Indicator: TA2638, Metabolic Activation: NONE, Method: STANDARD PLATE): active; positive | mutagenic call (Test System: CHINESE HAMSTER V-79, Strain/Indicator: V-79/6-THIOGUANINE, Metabolic Activation: NONE, Method: SUSPENSION/PLATE): inactive; negative | mutagenic call (Test System: CHINESE HAMSTER V-79, Strain/Indicator: V-79/6-THIOGUANINE, Metabolic Activation: RAT, LIVER, HOMOGENATE, Method: SUSPENSION/PLATE): inactive; negative | mutagenic call (Test System: CHINESE HAMSTER V-79, Strain/Indicator: V-79/8-AZAGUANINE, Metabolic Activation: NONE, Method: STANDARD PLATE): active; positive | mutagenic call (Test System: E. COLI, Strain/Indicator: WP2 (HCR), Metabolic Activation: NONE, Method: STANDARD PLATE): inactive; negative | mutagenic call (Test System: E. COLI, Strain/Indicator: WP2 (PKM101), Metabolic Activation: NONE, Method: STANDARD PLATE): active; positive | mutagenic call (Test System: E. COLI, Strain/Indicator: WP2 UVRA (PKM101), Metabolic Activation: NONE, Method: STANDARD PLATE): active; positive | mutagenic call (Test System: UDS RAT HEPATOCYTES, Strain/Indicator: THY INCORP, Metabolic Activation: NONE, Method: AUTOMATIC COLONY COUNTER): active; positive

C=C(Br)C(C)=O
mutagenic call [3]: active; positive

O=C(O)c1ccc([N+](=O)[O-])o1
mutagenic call (Test System: AMES SALMONELLA TYPHIMURIUM, Strain/Indicator: TA98(1,8-DNP6), Metabolic Activation: NONE, Method: STANDARD PLATE): inactive; negative | mutagenic call (Test System: AMES SALMONELLA TYPHIMURIUM, Strain/Indicator: TA98(1,8-DNP6), Metabolic Activation: RAT, LIVER, S-9, 3-METHYLCHOLANTHRENE, Method: STANDARD PLATE): inactive; negative | mutagenic call (Test System: AMES SALMONELLA TYPHIMURIUM, Strain/Indicator: TA98(NR), Metabolic Activation: NONE, Method: STANDARD PLATE): inactive; negative | mutagenic call (Test System: AMES SALMONELLA TYPHIMURIUM, Strain/Indicator: TA98(NR), Metabolic Activation: RAT, LIVER, S-9, 3-METHYLCHOLANTHRENE, Method: STANDARD PLATE): inactive; negative | mutagenic call [2]: inactive; negative | mutagenic call (Test System: AMES SALMONELLA TYPHIMURIUM, Strain/Indicator: TA98, Metabolic Activation: RAT, LIVER, S-9, 3-METHYLCHOLANTHRENE, Method: STANDARD PLATE): inactive; negative | mutagenic call [3]: active; positive

CNC(=O)N(O)C(C)=O
mutagenic call [2]: active; positive | mutagenic call (Test System: AMES SALMONELLA TYPHIMURIUM, Strain/Indicator: TA98, Metabolic Activation: RAT, LIVER, S-9, Method: STANDARD PLATE): active; positive | mutagenic call [3]: active; positive

Cc1cccc(N)c1C
mutagenic call (Test System: AMES SALMONELLA TYPHIMURIUM, Strain/Indicator: TA97, Metabolic Activation: HAMSTER, LIVER, S-9, AROCLOR 1254 (10%), Method: PREINCUBATION): inactive; negative | mutagenic call (Test System: AMES SALMONELLA TYPHIMURIUM, Strain/Indicator: TA97, Metabolic Activation: NONE, Method: PREINCUBATION): inactive; negative | mutagenic call (Test System: AMES SALMONELLA TYPHIMURIUM, Strain/Indicator: TA97, Metabolic Activation: RAT, LIVER, S-9, AROCLOR 1254 (10%), Method: PREINCUBATION): inactive; negative | mutagenic call (Test System: AMES SALMONELLA TYPHIMURIUM, Strain/Indicator: TA98, Metabolic Activation: HAMSTER, LIVER, S-9, AROCLOR 1254 (10%), Method: PREINCUBATION): active; positive | mutagenic call [1]: inactive; negative | mutagenic call (Test System: AMES SALMONELLA TYPHIMURIUM, Strain/Indicator: TA98, Metabolic Activation: RAT, LIVER, S-9, AROCLOR 1254 (10%), Method: PREINCUBATION): inactive; negative | mutagenic call (Test System: AMES SALMONELLA TYPHIMURIUM, Strain/Indicator: TA100, Metabolic Activation: HAMSTER, LIVER, S-9, AROCLOR 1254 (10%), Method: PREINCUBATION): active; positive | mutagenic call (Test System: AMES SALMONELLA TYPHIMURIUM, Strain/Indicator: TA100, Metabolic Activation: NONE, Method: PREINCUBATION): inactive; negative | mutagenic call (Test System: AMES SALMONELLA TYPHIMURIUM, Strain/Indicator: TA100, Metabolic Activation: RAT, LIVER, S-9, AROCLOR 1254 (10%), Method: PREINCUBATION): inactive; negative | mutagenic call (Test System: AMES SALMONELLA TYPHIMURIUM, Strain/Indicator: TA1535, Metabolic Activation: HAMSTER, LIVER, S-9, AROCLOR 1254 (10%), Method: PREINCUBATION): inactive; negative | mutagenic call (Test System: AMES SALMONELLA TYPHIMURIUM, Strain/Indicator: TA1535, Metabolic Activation: NONE, Method: PREINCUBATION): inactive; negative | mutagenic call (Test System: AMES SALMONELLA TYPHIMURIUM, Strain/Indicator: TA1535, Metabolic Activation: RAT, LIVER, S-9, AROCLOR 1254 (10%), Method: PREINCUBATION): inactive; negative

O=C(CBr)Nc1ccccc1
mutagenic call (Test System: AMES SALMONELLA TYPHIMURIUM, Strain/Indicator: TA100, Metabolic Activation: MOUSE, LIVER, S-9, AROCLOR 1254, Method: STANDARD PLATE): inactive; negative | mutagenic call [3]: inactive; negative
